Results published in patent US10444149B2, “Fluorescent compounds as sensing agents” (OHIO NORTHERN UNIVERSITY, priority 2016, dated 2019).
Marks after values point to notes of the source that are not given here.

Key:
[1] = Extraction of lead from water with octanol and triethylamine; conditions: 3 mM Pb(NO3)2, 1 equivalent triethylamine
Description: A 3 mM Pb(NO3)2 sample was prepared in deionized water and Compound 25 was added to give a green fluorescence. The lead was then extracted from the water using either 1-octanol or 2-octanol each with 1 equivalent (relative to Compound 25) of triethylamine, which turned the octanol portion green. After washing thrice with 1-octanol, 99% of the Pb^2+ had been extracted from the water. After washing twice with 2-octanol, 83% of the Pb^2+ had been extracted from the water.

[2] = Emission spectrum on exposure to varying amounts of lead nitrate; conditions: 5 μM compound; 3:1 or 2:1 tetrahydrofuran:methanol; excitation 370 nm
Description: Compound 20 was dissolved in methanol and then exposed to varying amounts of […] (i.e., Pb^2+). […] Therefore, a kit, method, system, or the like may utilize a specific solvent system for detection of lead or other Ions. Alternatively, and especially where the metal ion concentration is unknown, a kit, method, system, or the like may utilize a series of solvent systems in parallel to determine a concentration of metal ions.
A 5 μM sample of Compound 25 in 3:1 tetrahydrofuran:methanol or 2:1 tetrahydrofuran:methanol was prepared and exposed to varying amounts of Pb(NO3)2 (i.e., Pb^2+) dissolved in deionized water.

[3] = Visual ion selectivity test, excited at 365 nm; conditions: 3:1 tetrahydrofuran:methanol
Description: Compound 25 was dissolved in 3:1 tetrahydrofuran:methanol and then exposed to varying amounts of Zn/SO4 (i.e., Zn^2+), (NH4)2Fe(SO4)2.6H2O (i.e., Fe^2+), Fe2O3 (i.e., Fe^3+), CuSO4 (i.e., Cu^2+), or Pb(NO3)2 (i.e., Pb^2+) each in deionized water. Upon visual inspection when excited at 365 nm, the sample exposed to Pb^2+ turned green while all other samples remained blue.

[4] = Peak absorption wavelength, peak emission wavelength and fluorescent quantum yield; type: physicochemical; conditions: solvent dichloromethane
Excerpt: Table 2 provides a peak absorption wavelength (λabs maximum), peak emission wavelength (λem maximum), a fluorescent quantum yield (ΦF), and a synthesis yield for the various compounds. The synthesis yield is based on the synthetic pathway illustrated in FIG. 1.

[5] = Visual detection limit, blue to green fluorescence change; conditions: 5 μM compound in 3:1 tetrahydrofuran:methanol; Pb(NO3)2 in deionized water
Description: The detection limit Pb(NO3)2 (i.e., Pb^2+) for Compound 25 in 3:1 tetrahydrofuran:methanol was tested by exposing samples of 5 μM Compound 25 to ever decreasing concentrations of Pb(NO3)2 dissolved in deionized water.
A 40 mM solution of Pb(NO3)2 (i.e., Pb^2+) was prepared in tap water and then diluted with 3:1 tetrahydrofuran:methanol to a lead concentration of 133 μM. The resultant sample was added to solutions of 5 μM sample of Compound 25 in 3:1 tetrahydrofuran:methanol. […] This example illustrates that the lead detection can be performed using tap water, which includes a variety of other ions.

[6] = Detection of lead in methanol extract of soil
Description: A lead-free soil sample was collected, placed into a Buchner funnel, and soaked with 1 mL of 0.15 M Pb(NO3)2 in water to introduce lead to the soil. As a control sample, the same was performed with the lead-free soil without exposure to Pb^2+. After soaking, the soil samples were washed with 50 mL of methanol. A sample from each filtrate was diluted in 3:1 tetrahydrofuran:methanol and exposed to Compound 25. […] This example illustrates that the substituted chromones described herein may be useful in detecting ions from soil extracts.

Compound: COC(=O)C(C)(C)C1Oc2ccc(OC)cc2C(=O)/C1=C\NS(=O)(=O)c1ccc(OC)cc1 (stereo not shown) [Compound 25, (Z)methyl-2-(6-methoxy-3-(((4-methoxyphenyl)sulfonamido)methy-lene)-4-oxochroman-2-yl)-2-methylpropanoate]
- Pb^2+ extracted from the water ([1]; washing thrice with 1-octanol): 99%
- Pb^2+ extracted from the water ([1]; washing twice with 2-octanol): 83%
- change of peak emission in the presence of Pb^2+ [2]: red-shift and intensity decrease
- visual change of fluorescence colour [2]: blue to green
- fluorescence colour of sample exposed to Cu^2+ [3]: remained blue
- fluorescence colour of sample exposed to Fe^2+ [3]: remained blue
- fluorescence colour of sample exposed to Fe^3+ [3]: remained blue
- fluorescence colour of sample exposed to Zn^2+ [3]: remained blue
- selectivity among heavy metal ions ([3]; Zn^2+, Fe^2+, Fe^3+, Cu^2+, Pb^2+ compared): selectivity for Pb^2+ ions over other heavy metal ions
- fluorescence colour of sample exposed to Pb^2+ ([3]; excited at 365 nm): turned green
- ΦF [4]: 69* %
- λabs maximum [4]: 392 nm
- λem maximum [4]: 527 nm
- speed of the color change [5]: almost instantaneous
- color change with soil extract ([6]; extract from soil exposed to Pb^2+, diluted in 3:1 tetrahydrofuran:methanol): color change from blue to green
- color change with soil extract ([6]; extract from soil not exposed to Pb^2+, same dilution): no color change
